Measurements published in patent publication US6670446B1, “N1 modified glycopeptides” (Eli Lilly and Company, priority 1998, dated 2003).

What was measured:
Type in all cases: cell-based
[1] = system: Escherichia coli EC14; test: MIC, standard broth micro-dilution assay, EC 14
Method: (§1) The antibacterial efficacy of the present compounds is illustrated by Table III. The minimal inhibitory concentrations (MICs) were determined using a standard broth micro-dilution assay.

[2] = system: Staphylococcus aureus SA1199; test: MIC, standard broth micro-dilution assay, SA 1199
Method: as §1

[3] = system: Enterococcus faecium 180; test: MIC, standard broth micro-dilution assay, EF 180
Method: as §1

[4] = system: Staphylococcus haemolyticus 415; test: MIC, standard broth micro-dilution assay, SH 415
Method: as §1

[5] = system: Enterococcus faecalis 2041; test: MIC, standard broth micro-dilution assay, EF 2041
Method: as §1

[6] = system: Enterococcus faecium 180-1; test: MIC, standard broth micro-dilution assay, EF 180-1
Method: as §1

[7] = system: Staphylococcus aureus S13E
Method: as §1

[8] = system: Staphylococcus aureus 446; test: MIC, standard broth micro-dilution assay, SA 446
Method: as §1

[9] = system: Staphylococcus epidermidis 270; test: MIC, standard broth micro-dilution assay, SE 270
Method: as §1

[10] = system: Staphylococcus haemolyticus 105; test: MIC, standard broth micro-dilution assay, SH 105
Method: as §1

[11] = system: Enterococcus faecalis 276; test: MIC, standard broth micro-dilution assay, EF 276
Method: as §1

[12] = system: Sensitive Enterococcus faecium and faecalis; test: MIC, standard broth micro-dilution assay, Sensitive; conditions: geometric mean of 4-6 isolates
Method: as §1

[13] = system: Staphylococcus aureus SA1199A; test: MIC, standard broth micro-dilution assay, SA 1199A
Method: as §1

[14] = system: Resistant Enterococcus faecium and faecalis; test: MIC, standard broth micro-dilution assay, Resistant; conditions: geometric mean of 4-6 isolates
Method: as §1

[15] = system: Staphylococcus aureus X400; test: MIC, standard broth micro-dilution assay, SA X400
Method: as §1

[16] = system: Haemophilus influenzae RD; test: MIC, standard broth micro-dilution assay, HFRD
Method: as §1

[17] = system: Staphylococcus aureus 491; test: MIC, standard broth micro-dilution assay, SA 491
Method: as §1

[18] = system: Staphylococcus aureus 489; test: MIC, standard broth micro-dilution assay, SA 489
Method: as §1

[19] = system: Staphylococcus aureus 447; test: MIC, standard broth micro-dilution assay, SA 447
Method: as §1

[20] = system: Enterococcus gallinarum 245; test: MIC, standard broth micro-dilution assay, EG 245
Method: as §1

[21] = system: Staphylococcus aureus X778; test: MIC, standard broth micro-dilution assay, SA X778
Method: as §1

Compound | minimal inhibitory concentration (MIC), EC 14 [1] | minimal inhibitory concentration (MIC), SA 1199 [2] | minimal inhibitory concentration (MIC), EF 180 [3] | minimal inhibitory concentration (MIC), SH 415 [4] | minimal inhibitory concentration (MIC), EF 2041 [5] | minimal inhibitory concentration (MIC), EF 180-1 [6] | minimal inhibitory concentration (MIC), SA S13E [7] | minimal inhibitory concentration (MIC), SA 446 [8] | minimal inhibitory concentration (MIC), SE 270 [9] | minimal inhibitory concentration (MIC), SH 105 [10] | minimal inhibitory concentration (MIC), EF 276 [11] | minimal inhibitory concentration (MIC), Sensitive [12] | minimal inhibitory concentration (MIC), SA 1199A [13] | minimal inhibitory concentration (MIC), Resistant [14] | minimal inhibitory concentration (MIC), SA X400 [15] | minimal inhibitory concentration (MIC), HFRD [16] | minimal inhibitory concentration (MIC), SA 491 [17] | minimal inhibitory concentration (MIC), SA 489 [18] | minimal inhibitory concentration (MIC), SA 447 [19] | minimal inhibitory concentration (MIC), SA X778 [21] | also measured
CC(C)C[C@@H](N)C(=O)N[C@H]1C(=O)N[C@@H](CC(N)=O)C(=O)N[C@H]2C(=O)N[C@H]3C(=O)NC(C(=O)N[C@H](C(=O)O)c4cc(O)cc(O)c4-c4cc3ccc4O)[C@H](OC3CC(C)(N)C(O)C(C)O3)c3ccc(c(Cl)c3)Oc3cc2cc(c3OC2OC(CO)C(O)C(O)C2OC2CC(C)(N)C(O)C(C)O2)Oc2ccc(cc2Cl)[C@H]1O (stereo partly drawn) [Example 17, N^1-D-leucine derivative of desleucylA82846B] | >64 | 0.25 | 1 | 1 | ≦.06 | ≦.06 | 0.25 | 0.5 | 0.25 | 0.5 | 0.06 | 0.5 | ≦.06 | >32 | 0.06 | 32 | 0.125 | 0.06 | 0.5 | 0.06 | minimal inhibitory concentration (MIC), EG 245 [20]: 0.06
CC1OC(OC2c3ccc(c(Cl)c3)Oc3cc4cc(c3OC3OC(CO)C(O)C(O)C3OC3CC(C)(NCc5ccc(-c6ccccc6)cc5)C(O)C(C)O3)Oc3ccc(cc3Cl)C(O)C(NC(=O)C(N)CCCCN)C(=O)NC(CC(N)=O)C(=O)NC4C(=O)NC3C(=O)NC2C(=O)NC(C(=O)O)c2cc(O)cc(O)c2-c2cc3ccc2O)CC(C)(N)C1O [Example 31, N^1-L-lysine derivative of N^DISACC-(p-phenylbenzyl)desleucylA82846B] | >64 | 0.5 | 1 | 2 | 1 | 0.25 | 1 | 0.5 | 0.5 | 0.5 | 2 | 0.33 | 0.25 | 5.6 | 2 | >64 | 0.5 | 2 | 2 | 0.5 | minimal inhibitory concentration (MIC), EG 245 [20]: 0.5
CC1OC(OC2c3ccc(c(Cl)c3)Oc3cc4cc(c3OC3OC(CO)C(O)C(O)C3OC3CC(C)(NCc5ccc(-c6ccccc6)cc5)C(O)C(C)O3)Oc3ccc(cc3Cl)C(O)C(NC(=O)C(Cc3ccc(Cl)cc3)NC(=O)OC(C)(C)C)C(=O)NC(CC(N)=O)C(=O)NC4C(=O)NC3C(=O)NC2C(=O)NC(C(=O)O)c2cc(O)cc(O)c2-c2cc3ccc2O)CC(C)(N)C1O [Example 21, N^1-[N-BOC-D-3-(p-chlorophenyl)alanine] derivative of N^DISACC-(p-phenylbenzyl)desleucylA82846B] | >64 | 0.5 | 1 | 2 | 0.5 | 0.5 | 0.5 | 0.5 | 0.5 | 2 | 1 | 1.5 | no growth | 11 | 0.5 | 2 | 0.5 | 0.25 | 0.5 | 0.5 | minimal inhibitory concentration (MIC), EG 245 [20]: 1
CC1OC(OC2c3ccc(c(Cl)c3)Oc3cc4cc(c3OC3OC(CO)C(O)C(O)C3OC3CC(C)(NCc5ccc(-c6ccc(Cl)cc6)cc5)C(O)C(C)O3)Oc3ccc(cc3Cl)C(O)C(NC(=O)CCCCCCN)C(=O)NC(CC(N)=O)C(=O)NC4C(=O)NC3C(=O)NC2C(=O)NC(C(=O)O)c2cc(O)cc(O)c2-c2cc3ccc2O)CC(C)(N)C1O (centres unmarked) [Example 10, N^1-(7-amino-n-heptanoyl)-N^DISACC-[p-(p-chlorophenyl)benzyl]desleucylA82846B] | – | – | – | – | – | – | – | – | – | – | – | 0.57 | – | 5.7 | – | – | – | – | – | – | –
CNC(C(=O)NC1C(=O)NC(CC(N)=O)C(=O)NC2C(=O)NC3C(=O)NC(C(=O)NC(C(=O)O)c4cc(O)cc(O)c4-c4cc3ccc4O)C(OC3CC(C)(N)C(O)C(C)O3)c3ccc(c(Cl)c3)Oc3cc2cc(c3OC2OC(CO)C(O)C(O)C2OC2CC(C)(N)C(O)C(C)O2)Oc2ccc(cc2Cl)C1O)C(C)C [Example 42, N^1-(N-methyl-D-valine) derivative of desleucylA82846B] | >64 | – | 64 | 1 | – | – | 1 | 0.5 | 1 | 0.5 | – | 0.66 | – | 128 | 0.5 | – | 1 | 0.5 | 0.5 | 2 | –
CC(C)C[C@@H](NC(=O)OC(C)(C)C)C(=O)N[C@H]1C(=O)N[C@@H](CC(N)=O)C(=O)N[C@H]2C(=O)N[C@H]3C(=O)NC(C(=O)N[C@H](C(=O)O)c4cc(O)cc(O)c4-c4cc3ccc4O)[C@H](OC3CC(C)(N)C(O)C(C)O3)c3ccc(c(Cl)c3)Oc3cc2cc(c3OC2OC(CO)C(O)C(O)C2OC2CC(C)(N)C(O)C(C)O2)Oc2ccc(cc2Cl)[C@H]1O (stereo partly drawn) [Example 14, N^1-(N-BOC-D-leucine) derivative of desleucylA82846B] | – | – | – | – | – | – | – | – | – | – | – | 6.1 | – | >128 | – | – | – | – | – | – | –
CC1OC(OC2C(Oc3c4cc5cc3Oc3ccc(cc3Cl)[C@@H](O)[C@@H](NC(=O)[C@@H](CCCCNC(=O)OC(C)(C)C)NC(=O)OC(C)(C)C)C(=O)N[C@@H](CC(N)=O)C(=O)N[C@H]5C(=O)N[C@H]3C(=O)NC(C(=O)N[C@H](C(=O)O)c5cc(O)cc(O)c5-c5cc3ccc5O)[C@H](OC3CC(C)(N)C(O)C(C)O3)c3ccc(c(Cl)c3)O4)OC(CO)C(O)C2O)CC(C)(N)C1O (stereo partly drawn) [Example 16, N^1-(N,N′-DIBOC-D-lysine) derivative of desleucylA82846B] | – | – | – | – | – | – | – | – | – | – | – | 7 | – | >128 | – | – | – | – | – | – | –
